Data: patent publication US8658424B2, “Myelinating oligodendrocyte precursor populations” (Wisconsin Alumni Research Foundation, priority 2007, dated 2014)
Entries after “also recorded” stand apart in the source; their conditions may differ.

Experiments:
Type in all cases: cell-based, human
[1] = system: hESC-derived Olig2 progenitors; test: Differentiation of Olig2 progenitors to OPCs in glial differentiation medium (marker immunostaining); conditions: for timing of OPC differentiation (PDGFRα, NG2, Sox10): added to Olig2/Nkx2.2 progenitors in glial differentiation medium; for OLIG2/PDGFRa double positive OPCs: day 100, treatment from Olig2 induction; for PDGFRα+ OPCs (in words): treated between days 24 and 35, later OPC differentiation
Experimental: Olig2-expressing progenitors usually appeared around day 24 (Li et al., supra). […] FGF2 (R&D; 10 ng/ml) and/or EGF (Sigma; 10 ng/ml) was added to examine their effect on motor neuron differentiation and progenitor proliferation.
From the 5th week of differentiation, FGF2 was replaced with a cocktail of cytokines consisting of PDGFAA, IGF1 and NT3 (all at 10 ng/ml). Du Z, et al., “Induced expression of Olig2 is sufficient for oligodendrocyte specification but not for motoneuron specification and astrocyte repression,” Mol. Cellular Neurosci. […] SHH or purmorphamine was removed around 10 weeks when PDGFRα+ OPCs appeared. The cultures were fed every other day and the progenitor clusters were broken into smaller pieces with polished glass Pasteur pipette every week.
(§1) Immuno-fluorescent staining on coverslip cultures and free-floating brain sections was described previously. […] Specificity of the antibodies was first tested in embryonic brain and spinal cord tissues. Li et al., supra; and Pankratz et al., supra. Negative controls without primary and secondary antibody were performed in all experiments to monitor non-specific staining. The stained samples were visualized with a Nikon TE600 fluorescent scope equipped with a SPOT camera and software (Diagnostic Instruments; Sterling Heights, Mich.), as well as a Nikon C1 laser scanning confocal microscope.
(§2) At least three coverslips were counted for every group. The experiments were repeated three times with different batches of cells.

[2] = system: hESC-derived neuroepithelial cells; test: Olig2 induction from hESC-derived neuroepithelial cells (immunostaining); conditions: for Olig2-expressing progenitors: treatment during Olig2 induction, SHH 100 ng/ml, purmorphamine 1 μM, day 35
Experimental: hESCs (line H1 and H9; WiCell Research Institute; Madison, Wis.) were cultured on irradiated mouse embryonic fibroblasts (MEF) in a 6-well plate. […] Differentiated colonies were marked and removed physically with a pipette tip and the stem cell state was periodically monitored by expression of Oct4 and SSEA4.
hESCs were then differentiated to primitive neuroepithelial cells in an adherent colony culture for 10 days in a neural induction medium consisting of DMEM/F12, N2 supplement and non-essential amino acids, as detailed elsewhere. […] Chem. Soc. […] The neuroepithelial colonies were gently blown off the surface by a pipette and grown as floating clusters in suspension in the same medium.
as §1, §2

[3] = system: hESC-derived Olig2 progenitors; test: Motor neuron differentiation of Olig2 progenitors (HB9 and Olig2 immunostaining); conditions: for cells expressing HB9: day 35, cultures with purmorphamine from day 24, with or without FGF2 10 ng/ml; for HB9 expression: day 24 to 35, combined with purmorphamine, FGF2 or EGF 10 ng/ml
Excerpt: (§3) Olig2-expressing progenitors usually appeared around day 24 (Li et al., supra). The culture was then switched to a glial differentiation medium (modified Bottenstein-Sato medium; see, Bottenstein J, et al., “The growth of cells in serum-free hormone-supplemented media,” Methods Enzymol. 58:94-109 (1979); and Bottenstein J, et al., “Selective survival of neurons from chick embryo sensory ganglionic dissociates utilizing serum-free supplemented medium,” Exp. Cell Res. 125:183-190 (1980)) consisting of DMEM, N1 supplement (Sigma; St. Louis, Mo.), T3 (Sigma); 60 ng/ml), biotin (Sigma; 100 ng/ml) and cAMP (Sigma; 1 uM). FGF2 (R&D; 10 ng/ml) and/or EGF (Sigma; 10 ng/ml) was added to examine their effect on motor neuron differentiation and progenitor proliferation.
(§4) Immuno-fluorescent staining on coverslip cultures and free-floating brain sections was described previously. Zhang et al. (2001), supra; Pankratz et al., supra. The following primary antibodies were used in the present study: anti-Olig2 (goat IgG, 1:500, sc-19969, Santa Cruz Biotechnology; Santa Cruz, Calif.), anti-βIII-tubulin (TuJ1, mlgG 1:5000, Sigma), anti-GFAP (mlgG 1:5000, Chemicon), anti-NG2 (mlgG 1:400, BD Pharmingen), anti-HB9 (mlgG 1:50, DSHB, Iowa City, Iowa), anti-PDGFRα (rat IgG 1:1000, gift from Dr. Stallcup WILLIAM STALLCUP, Burnham Institute for Medical Research, burnham.org/default.asp?contentID=203 on the World Wide Web) (Nishiyama A, et al., “Colocalization of NG2 proteoglycan and PDGF alpha-receptor on O2A progenitor cells in the developing rat brain,” J. Neurosci. Res. 43:299-314 (1996)), anti-O4 (1:50, mouse IgM, Chemincon MAB345), MBP (1:500, rabbit IgG, Chemicon), anti-human nuclei (1:200, mouse IgG, Chemicon). Specificity of the antibodies was first tested in embryonic brain and spinal cord tissues. Li et al., supra; and Pankratz et al., supra. Negative controls without primary and secondary antibody were performed in all experiments to monitor non-specific staining. The stained samples were visualized with a Nikon TE600 fluorescent scope equipped with a SPOT camera and software (Diagnostic Instruments; Sterling Heights, Mich.), as well as a Nikon C1 laser scanning confocal microscope.
(§5) For quantification of stained cell populations, optical fields were randomly selected with fixed ROI (region of interest) frame using cell counter plugin of ImageJ (Abramoff M, et al., “Image Processing with ImageJ,” Biophoton. Int. 11:36-42 (2004)) from independent coverslips of the same group. At least three coverslips were counted for every group. The experiments were repeated three times with different batches of cells. Statistical analyses were performed using ANOVA with R (R_Development_Core_Team, 2007).
FGF2 (10 ng/ml) was applied to the culture alongside purmorphamine at day 24 (following the appearance of Olig2, but before the differentiation of HB9+ motor neurons). […] Li et al., supra; and Li X & Zhang S, “In vitro differentiation of neural precursors from human embryonic stem cells,” Methods Mol. Biol. 331:169-177 (2006). […] Accordingly, a much larger population (55%) of Olig2 cells was present when FGF2 was present early on. RT-PCR analyses confirmed that Ngn2 and HB9 expression was repressed. Cultures with FGF2 alone (without the presence of SHH or purmorphamine) had few, if any, HB9+ motor neurons or Olig2-expressing progenitors (see FIGS. 4B, C).

[4] = system: hESC-derived Olig2 progenitors; test: Olig2/Nkx2.2 co-expression in Olig2 progenitors (immunostaining); conditions: for OLIG2+/NKX2.2+ population: gliogenic progenitors treated day 35 to 50 (purmorphamine 1 uM, cyclopamine 5 μM), examined day 50; for cells expressing Olig2 and/or Nkx2.2: treated day 24 to 35, examined day 35
Excerpt: as §3, §4, §5
Continued SHH signaling was required for maintaining gliogenic Olig2 progenitors. Gliogenic Olig2 progenitor cultures (day 35) were grown in the presence or absence of purmorphamine (1 uM), or the presence of cyclopamine (5 μM) for 2 weeks. […] Thus, SHH signaling was continuously needed to maintain the Olig2 progenitors, even though exogenous SHH is now not necessary.

[5] = system: hESC-derived Olig2 progenitors; test: Progenitor proliferation (Ki67 positive cells); conditions: 10 ng/ml, day 24 to 35
Excerpt: as §3
To determine pro-proliferation effects of FGF2, we used another mitogen, EGF, as a control. […] Thus, FGF2 appeared to increase the Olig2+ cells by preventing the differentiation of Olig2 progenitors to motor neurons.

[6] = system: hESC-derived Olig2 progenitors; test: RT-PCR gene expression in progenitor cultures
[7] = system: hESC-derived Olig2 progenitors; test: FACS analysis of OLIG2+ population; conditions: day 50, with FGF2 versus without FGF2
[8] = system: hESC-derived Olig2 progenitors; test: Differentiation of Olig2 progenitors to OPCs in glial differentiation medium (marker immunostaining); conditions: progenitors cultured in the presence of FGF2 throughout; 13-14 weeks

c1ccc2c(Oc3nc(Nc4ccc(N5CCOCC5)cc4)c4ncn(C5CCCCC5)c4n3)cccc2c1 [purmorphamine]
timing of OPC differentiation (PDGFRα, NG2, Sox10) [1]: did not speed up the differentiation of OPCs | OLIG2/PDGFRa double positive OPCs [1]: present | PDGFRα+ OPCs ([1]; treated day 35 to 50, examined day 100): appear | concentration that produced the highest proportion of Olig2 progenitors [2]: 1 µM | induction of Olig2 compared with SHH ([2]; purmorphamine 1 uM replacing SHH, p<0.0001): earlier and more potent induction of Olig2 | earlier induction of Olig2 expression than SHH ([2]; purmorphamine versus SHH): 4 to 5 days | Olig2-expressing progenitors [2]: present | cells expressing HB9 [3]: 40-50% | OLIG2+/NKX2.2+ population [4]: present | more Olig2/Nkx2.2 double positive cells ([4]; purmorphamine 1 uM day 35 to 50, day 50, printed comparator: cultures with cyclopamine): about 40% | cells expressing Olig2 and/or Nkx2.2 [4]: co-express; also recorded: sustained Olig2 progenitor population

EGF: mitogen used as a control for FGF2 (Sigma)
timing of OPC differentiation (PDGFRα, NG2, Sox10) [1]: did not speed up the differentiation of OPCs | proportion of Ki67 positive cells [5]: does not selectively alter; also recorded: did not increase | proportion of Olig2 positive cells ([3]; EGF 10 ng/ml, day 24 to 35): did not increase | HB9 expression [3]: moderately decreases

CC1=C2C[C@H]3[C@@H](CC=C4C[C@@H](O)CC[C@@]43C)[C@@H]2CC[C@]12O[C@@H]1C[C@H](C)CN[C@H]1[C@H]2C [cyclopamine]
OLIG2/PDGFRa double positive OPCs [1]: rarely; also recorded: lack of OPCs | PDGFRα+ OPCs (in words) [1]: few OPCs were present | Olig2-expressing progenitors [2]: rarely; also recorded: blocked Olig2 transcription; also recorded: near absence of Olig2 cells | OLIG2+/NKX2.2+ population [4]: not and few cells expressing Olig2 and/or Nkx2.2 | cells expressing Olig2 and/or Nkx2.2 [4]: near complete lack of cells expressing Olig2 and/or Nkx2.2

FGF2: Fibroblast Growth Factor 2 (R&D)
Ngn2 and HB9 expression (RT-PCR) ([6]; FGF2 10 ng/ml with purmorphamine, day 24 to 35): repressed | expression of NFIA (RT-PCR) ([6]; FGF2 from day 35): promoted the expression of NFIA | expression of Olig2 (RT-PCR) ([6]; FGF2 from day 35 in presence of purmorphamine): compromises the effect of purmorphamine to maintain expression of Olig2 | SHH transcript (quantitative RT-PCR) ([6]; day 50, FGF2 from day 35): decreases SHH by half | transcription of GLI2 and GLI3 (quantitative RT-PCR) ([6]; day 50, FGF2 from day 35): increases | decrease in the OLIG2+ population (FACS) [7]: 10% | total cells generated ([1]; FGF2 with purmorphamine days 24-35 versus purmorphamine alone): substantially more total cells | timing of OPC differentiation (PDGFRα, NG2, Sox10) [1]: did not speed up the differentiation of OPCs | PDGFRα+ OPCs (in words) [1]: similar | proportion of Ki67 positive cells [5]: does not selectively alter | population of Olig2 cells ([3]; FGF2 10 ng/ml with purmorphamine from day 24, day 35): 55% | HB9+ motor neurons or Olig2-expressing progenitors ([3]; FGF2 alone, without SHH or purmorphamine): few, if any | HB9-expressing cells ([3]; FGF2 removed at day 35 and RA added back, one to two weeks later): hardly any | HB9 expression [3]: blocks HB9 expression; also recorded: nearly completely blocked HB9 expression | cells expressing HB9 [3]: less than 5% | increase of OLIG2+ cells ([3]; with presence of Pur, 12 days from day 24): about 50% | GFAP+ astrocytes [8]: 35% | PDGFRa+ OPCs [8]: 4% | βIII tubulin+ neurons [8]: 53% | Nkx2.2 progenitors ([4]; FGF2 continued from day 35, 7th week): did not appear to change significantly | Olig2/Nkx2.2 double positive cells ([4]; FGF2 continued from day 35, examined day 50 (7th week)): decreased; also recorded: few double positive cells

sonic hedgehog [SHH]
timing of OPC differentiation (PDGFRα, NG2, Sox10) [1]: did not speed up the differentiation of OPCs | OLIG2/PDGFRa double positive OPCs [1]: present | onset of Olig2 expression ([2]; one week following SHH treatment): ~23 day of differentiation | Olig2-expressing progenitors [2]: present | cells expressing Olig2 and/or Nkx2.2 [4]: co-express; also recorded: sustained Olig2 progenitor population

B1: Noggin: a BMP antagonist known to promote OPC differentiation (protein, UniProt Q13253 28-232, looked up)
Noggin: QHYLHIRPAPSDNLPLVDLIEHPDPIFDPKEKDLNETLLRSLLGGHYDPGFMATSPPEDRPGGGGGAAGGAEDLAELDQLLRQRPSGAMPSEIKGLEFSEGLAQGKKQRLSKKLRRKLQMWLWSQTFCPVLYAWNDLGSRFWPRYVKVGSCFSKRSCSVPEGMVCKPSKSVHLTVLRWRCQRRGGQRCGWIPIQYPIISECKCSC
timing of OPC differentiation ([1]; Noggin 100 ng/ml at day 35 together with SHH 100 ng/ml): did not result in earlier differentiation of OPCs
